The values that follow come from patent US20250084058A1, “PHENYLPYRAZOLE COMPOUND AND APPLICATION THEREOF” (priority 2022, published 2025).

Holding throughout (assay type): in vivo
One test concerns Plutella xylostella. The experiment in a line: Activity determination of killing Plutella xylostella (Airbrush spray, cabbage leaf discs). The settings on record: foliar; for mortality at 0.3125 µg/mL: read-out: Mortality (%, on 3rd day after administration) 0.3125 mg/L; for mortality at 0.625 µg/mL: read-out: Mortality (%, on 3rd day after administration) 0.625 mg/L. The method, then: (§1) The compounds to be tested were dissolved in a mixed solvent of acetone/methanol (1:1) and then diluted to desired concentrations with water containing 0.1% (wt) Tween 80.
(§2) With Mythimna separata and Plutella xylostella as targets, the activity was determined by Airbrush spray method.
Determination method: Cabbage leaves were punched into leaf discs with the diameter of 2 cm by a puncher, the pressure of Airbrush spray treatment is 10 psi (about 0.7 kg/cm^2), and the compounds to be tested were sprayed onto the front and back surfaces of each leaf disc at a liquid amount of 0.5 mL. After drying in the shade, 10 3rd instar larvae were inoculated to each treatment, and each treatment was repeated for 3 times. After the treatment, the larvae were placed in an observation room for culture at 25° C. with relative humidity of 60-70%. On 3rd day after administration, the number of surviving larvae was investigated, and the mortality was calculated.
Some compounds of the present disclosure and control compounds were selected to carry out parallel comparative experiments of the insecticidal activity against Plutella xylostella (on 3rd day after administration), and the determination method was the same as above.

A further test relates to Dermacentor variabilis. Briefly: Insecticidal test on Dermacentor variabilis (compound film in culture dish). The following applies: 1 μg/cm^2, 1st nymphs, after 24 h, 25° C., read-out: insect mortality (Dermacentor variabilis). The method, then: (§3) 4 mg of compounds to be tested were dissolved in 40 mL of acetone to obtain acetone solutions with a concentration of 100 mg/L. Bottom surfaces and side surfaces of 2 culture dishes with an inner diameter of 5.3 cm were coated with 400 μL of the drug solutions, and when the acetone was volatilized, films of the compounds of the present disclosure were prepared on inner walls of the culture dishes. The inner walls of the culture dishes used were 40 cm^2, and a dose of the treatment drugs was 1 μg/cm^2. 10 1st nymphs of Dermacentor variabilis (males and females were mixed) were placed in the culture dishes. The 2 culture dishes were combined, sealed with tape at a junction portion to prevent escape of the nymphs, and then stored in a constant-temperature room at 25° C. The number of dead insects was checked after 24 h, and the insect mortality was calculated. The test was repeated for 3 times. Test results: The insect mortality of compounds 1, 2, 3, 4, 5, 11, 12, 18, 32, 33, 34, 46, 60, 74, 88, 99, 101, 102, 104, 105, 108, 109, 110, 111, 113 and 114 is 70% or above.

The next test deals with Tetranychus cinnabarinus. Briefly: Greenhouse acaricidal activity on adult acarids of Tetranychus cinnabarinus (spraying of Phaseolus vulgaris seedlings). The following applies: dose 1.25 mg/L, after 72 h, read-out: mortality against adult acarids of Tetranychus cinnabarinus. The method, then:
According to the solubility of the compounds to be tested, the compounds to be tested were dissolved in acetone or dimethyl sulfoxide and prepared into 50 mL of solutions to be tested at desired concentrations with a 0.1% Tween 80 solution, where the content of the acetone or dimethyl sulfoxide in the solutions was not higher than 10%.
Two true leaves of Phaseolus vulgaris seedlings were taken, and 30-40 adult acarids of Tetranychus cinnabarinus were inoculated. After the cardinal number was investigated, the whole plants were subjected to spraying treatment with a hand-held sprayer, each treatment was repeated for 3 times, and the plants were placed in a standard observation room after the treatment. The number of surviving acarids was investigated after 72 h, and the mortality was calculated.

The test system of a further test is Mythimna separata. Briefly: Activity determination of killing Mythimna separata (Airbrush spray, corn leaf segments). The following applies: foliar, dose 1.25 mg/L, 3rd instar larvae, 3rd day after administration, read-out: mortality against Mythimna separata. The method, then:
as §1, §2
Determination method: Corn leaves were cut into leaf segments with the length of 2 cm, the pressure of Airbrush spray treatment is 10 psi (about 0.7 kg/cm^2), and the compounds to be tested were sprayed onto the front and back surfaces of each leaf segment at a liquid amount of 0.5 mL. After drying in the shade, 10 3rd instar larvae were inoculated to each treatment, and each treatment was repeated for 3 times. After the treatment, the larvae were placed in an observation room for culture at 25° C. with relative humidity of 60-70%. On the 3rd day after administration, the number of surviving larvae was investigated, and the mortality was calculated.

A further test has as its system Ctenocephalides felis. The experiment in a line: Insecticidal test on Ctenocephalides felis (compound film in culture dish). The following applies: 1 μg/cm^2; adult Ctenocephalides felis; after 72 h; 25° C.; read-out: insect mortality (Ctenocephalides felis). The method, then:
as §3, with “of” for “of 2”, “adult Ctenocephalides felis” for “1st nymphs of Dermacentor variabilis”, “dishes, and the” for “dishes. The 2”, “covered” for “combined, sealed with tape at a junction portion to prevent escape of the nymphs,”, “72” for “24”

[1] abbreviates: 0.3125 mg/L, parallel comparative experiment, 3rd day after administration.
The mark [2] stands for this setting: 0.625 mg/L, parallel comparative experiment, 3rd day after administration.
The mark [3] stands for this setting: 1.25 mg/L, parallel comparative experiment, 3rd day after administration, read-out: Mortality (%, on 3rd day after administration) 1.25 mg/L.
Setting [4] is: read-out: Mortality (%, on 3rd day after administration) 1.25 mg/L.
The mark [5] stands for this setting: dose 1.25 mg/L, 3rd instar larvae, 3rd day after administration, read-out: mortality against Plutella xylostella.

Read-outs that look alike come from different tables or passages of the source.

Turning to `O=C(NC1CC1)c1cc(-c2cnn(-c3c(Cl)cc(C(F)(C(F)(F)F)C(F)(F)F)cc3Cl)c2)cnc1Cl` [CK1, reference compound], in the test on Plutella xylostella (setting [1]), the mortality at 0.3125 µg/mL turned out to be 20%. For the same molecule, the mortality at 0.625 µg/mL in the test with Plutella xylostella (setting [2]) was determined as 66.7%. Further, in the test with Plutella xylostella (setting [3]), the mortality at 1.25 µg/mL was 100%.

As to `CN(C(=O)c1cc(-c2cnn(-c3c(Cl)cc(C(F)(C(F)(F)F)C(F)(F)F)cc3Cl)c2)cnc1Cl)C1CC1` [CK2, reference compound], in the test on Plutella xylostella, the mortality at 0.3125 µg/mL turned out to be 13.3% and the mortality at 0.625 µg/mL was found to be 60%. Further, the mortality at 1.25 µg/mL with Plutella xylostella (setting [4]) stood at 93.3%.

As to `N#CC1(NC(=O)c2cc(-c3cnn(-c4c(Cl)cc(C(F)(C(F)(F)F)C(F)(F)F)cc4Cl)c3)cnc2Cl)CC1` [CK3, reference compound], in the test on Plutella xylostella, the mortality at 0.3125 µg/mL is 30% and the mortality at 0.625 µg/mL came out at 60%. Further, the mortality at 1.25 µg/mL in the test with Plutella xylostella (setting [4]) turned out to be 100%.

Take `CN(C(=O)c1cc(-c2cnn(-c3c(Cl)cc(C(F)(C(F)(F)F)C(F)(F)F)cc3Cl)c2)cnc1Cl)C1(C#N)CC1` [CK4, reference compound]: in the test with Plutella xylostella, the mortality at 0.3125 µg/mL was determined as 20% and the mortality at 0.625 µg/mL was found to be 56.7%. For the same molecule, the mortality at 1.25 µg/mL in the test with Plutella xylostella (setting [4]) was found to be 90%.

`C=CCN(C(=O)c1cc(-c2cnn(-c3c(Cl)cc(C(F)(C(F)(F)F)C(F)(F)F)cc3Cl)c2)cnc1Cl)C1CC1` [Compound 1]: the mortality at 0.3125 µg/mL in the test on Plutella xylostella (setting [1]) was 93.3%. In addition, in the test on Plutella xylostella (setting [2]), the mortality at 0.625 µg/mL amounted to 100%. The mortality at 1.25 µg/mL in the test with Plutella xylostella (setting [3]) is 100%; in the test with Plutella xylostella (setting [5]), not below 90%; with Tetranychus cinnabarinus, not below 90%; with Mythimna separata it was not below 90%. Besides, the mortality at 1 µg/cm2 with Dermacentor variabilis and with Ctenocephalides felis was not below 70% throughout.

On to `C#CCN(C(=O)c1cc(-c2cnn(-c3c(Cl)cc(C(F)(C(F)(F)F)C(F)(F)F)cc3Cl)c2)cnc1Cl)C1CC1` [Compound 2], for which the mortality at 0.3125 µg/mL with Plutella xylostella (setting [1]) amounted to 90%. For the same molecule, the mortality at 0.625 µg/mL with Plutella xylostella (setting [2]) came to 100%. Further, the mortality at 1.25 µg/mL is 100% in the test with Plutella xylostella (setting [3]), not below 90% in the test with Plutella xylostella (setting [5]), not below 90% in the test with Tetranychus cinnabarinus and not below 90% in the test with Mythimna separata. Further, the mortality at 1 µg/cm2 with Dermacentor variabilis and in the test on Ctenocephalides felis was not below 70% throughout.

Consider `O=C(c1cc(-c2cnn(-c3c(Cl)cc(C(F)(C(F)(F)F)C(F)(F)F)cc3Cl)c2)cnc1Cl)N(CC1CC1)C1CC1` [Compound 3], for which, in the test on Plutella xylostella (setting [1]), the mortality at 0.3125 µg/mL stood at 76.7%. Also, the mortality at 0.625 µg/mL in the test on Plutella xylostella (setting [2]) is 100%. The mortality at 1.25 µg/mL was 100% in the test with Plutella xylostella (setting [3]), not below 90% in the test with Plutella xylostella (setting [5]), not below 90% in the test on Tetranychus cinnabarinus and not below 90% in the test with Mythimna separata. Moreover, the mortality at 1 µg/cm2 with Dermacentor variabilis and with Ctenocephalides felis was not below 70% in each case.

With `N#CCN(C(=O)c1cc(-c2cnn(-c3c(Cl)cc(C(F)(C(F)(F)F)C(F)(F)F)cc3Cl)c2)cnc1Cl)C1CC1` [Compound 4], the mortality at 0.3125 µg/mL in the test with Plutella xylostella (setting [1]) was found to be 100%. Moreover, the mortality at 0.625 µg/mL with Plutella xylostella (setting [2]) was 100%. Besides, the mortality at 1.25 µg/mL in the test on Plutella xylostella (setting [3]) is 100%; in the test with Plutella xylostella (setting [5]) it was not below 90%; in the test on Tetranychus cinnabarinus, not below 90%; in the test on Mythimna separata, not below 90%. Also, the mortality at 1 µg/cm2 in the test on Dermacentor variabilis and with Ctenocephalides felis was not below 70% in each case.

With `N#CCCN(C(=O)c1cc(-c2cnn(-c3c(Cl)cc(C(F)(C(F)(F)F)C(F)(F)F)cc3Cl)c2)cnc1Cl)C1CC1` [Compound 5], in the test on Plutella xylostella (setting [1]), the mortality at 0.3125 µg/mL stood at 100%. Moreover, in the test with Plutella xylostella (setting [2]), the mortality at 0.625 µg/mL came out at 100%. Besides, the mortality at 1.25 µg/mL in the test with Plutella xylostella (setting [3]) was 100%; in the test on Plutella xylostella (setting [5]), not below 90%; in the test with Tetranychus cinnabarinus, not below 90%; in the test on Mythimna separata, not below 90%. In addition, the mortality at 1 µg/cm2 in the test on Dermacentor variabilis and in the test on Ctenocephalides felis was not below 70% each time.

As to `N#CCN(C(=O)c1cc(-c2cnn(-c3c(Cl)cc(C(F)(C(F)(F)F)C(F)(F)F)cc3Cl)c2)cnc1Cl)C1(C#N)CC1` [Compound 11], in the test on Plutella xylostella (setting [1]), the mortality at 0.3125 µg/mL amounted to 100%. For the same molecule, the mortality at 0.625 µg/mL in the test on Plutella xylostella (setting [2]) is 100%. Further, the mortality at 1.25 µg/mL with Plutella xylostella (setting [3]) was 100%; in the test with Plutella xylostella (setting [5]) it was not below 90%; with Tetranychus cinnabarinus, not below 90%; in the test with Mythimna separata, not below 90%. In addition, the mortality at 1 µg/cm2 in the test on Dermacentor variabilis and with Ctenocephalides felis was not below 70% each time.

In the case of `N#CCCN(C(=O)c1cc(-c2cnn(-c3c(Cl)cc(C(F)(C(F)(F)F)C(F)(F)F)cc3Cl)c2)cnc1Cl)C1(C#N)CC1` [Compound 12], the mortality at 0.3125 µg/mL with Plutella xylostella (setting [1]) is 100%. In the test with Plutella xylostella (setting [2]), the mortality at 0.625 µg/mL amounted to 100%. For the same molecule, the mortality at 1.25 µg/mL is 100% in the test with Plutella xylostella (setting [3]), not below 90% in the test on Plutella xylostella (setting [5]), not below 90% in the test with Tetranychus cinnabarinus and not below 90% with Mythimna separata. In addition, the mortality at 1 µg/cm2 in the test on Dermacentor variabilis and in the test on Ctenocephalides felis was not below 70% in each case.

Regarding `N#CCN(C(=O)c1cc(-c2cnn(-c3c(Br)cc(C(F)(C(F)(F)F)C(F)(F)F)cc3Br)c2)cnc1Cl)C1CC1` [Compound 18], the mortality at 1.25 µg/mL with Plutella xylostella (setting [5]), with Tetranychus cinnabarinus and in the test with Mythimna separata was not below 90% each time. In addition, the mortality at 1 µg/cm2 in the test on Dermacentor variabilis and in the test on Ctenocephalides felis was not below 70% in each case.

Regarding `N#CCN(C(=O)c1cc(-c2cnn(-c3c(Cl)cc(C(F)(C(F)(F)F)C(F)(F)F)cc3Br)c2)cnc1Cl)C1CC1` [Compound 32], the mortality at 1.25 µg/mL in the test on Plutella xylostella (setting [5]), with Tetranychus cinnabarinus and in the test on Mythimna separata was not below 90% throughout. Also, the mortality at 1 µg/cm2 in the test with Dermacentor variabilis and with Ctenocephalides felis was not below 70% throughout.

As for `N#CCCN(C(=O)c1cc(-c2cnn(-c3c(Cl)cc(C(F)(C(F)(F)F)C(F)(F)F)cc3Br)c2)cnc1Cl)C1CC1` [Compound 33], the mortality at 1.25 µg/mL in the test on Plutella xylostella (setting [5]), in the test with Tetranychus cinnabarinus and in the test on Mythimna separata was not below 90% in each case. Also, the mortality at 1 µg/cm2 with Dermacentor variabilis and in the test on Ctenocephalides felis was not below 70% in each case.

As to `N#CCCCN(C(=O)c1cc(-c2cnn(-c3c(Cl)cc(C(F)(C(F)(F)F)C(F)(F)F)cc3Br)c2)cnc1Cl)C1CC1` [Compound 34], the mortality at 1.25 µg/mL in the test on Plutella xylostella (setting [5]), in the test on Tetranychus cinnabarinus and with Mythimna separata was not below 90% in each case. Further, the mortality at 1 µg/cm2 in the test with Dermacentor variabilis and with Ctenocephalides felis was not below 70% each time.
